Reference: EP2599789A1, “Marker and method for diagnosing diarrhea syndrome” (Bergen Teknologioverføring AS, priority 2011, dated 2013)
Where “and” joins values, the source holds several entries; their conditions need not be identical. Equal entries are not always repeated. Entries after “also recorded” stand apart in the source; their conditions may differ.

Columns and labels:
[1] = tested on: familial diarrhea syndrome patients; experiment: Metformin treatment trial (I), pilot study in patients; assay type: in vivo, human
Experimental: A pilot study (I) with metformin was performed in six individuals from branch A, with a low peroral dose of 500 mg twice daily. The trial lasted 10 weeks, and the patients registered number of stools (and texture) during week 1, 5 and 10. The first week was without treatment and the patients received 500 mg x 2 during weeks 2- 5. Weeks 6 - 10 were without treatment. […] Number of stools per week was reduced by 40% in two patients with high stool frequency (35-36 per week). Three patients reported that stools were firmer during treatment.

[2] = tested on: familial diarrhea syndrome patients; experiment: Metformin treatment trial (II), pilot study with increasing metformin doses; assay type: in vivo, human; settings: four of five individuals
Experimental: The dose given in the first metformin treatment trial (Table 2) was modest, and another pilot study with increasing metformin doses was started, including five individuals with high stool frequencies (22-42 per week). Patients with a history of ileus or inflammatory bowel disease were not included. Stool frequency was recorded continously for eight weeks. At day 1 of each week, blood samples were drawn for control of s-glucose, hemoglobin and creatinine. Symptoms and potential side-effects were followed closely by a weekly telephone call from the gastroenterologist.
The patients were without medication in week 1, and then the dose of metformin was increased each week as shown by the horizontal bars, starting at the beginning of week 2 and stopping by the end of week 5. Patient identifiers are listed in bold red letters in the panels.

[3] = molecular target: mutant guanylate cyclase C GC-C S840I (p.Ser840Ile), transiently expressed in HEK293T cells (human); experiment: cell-based or functional assay
[4] = peroral 500 mg twice daily during weeks 2-5

| Compound | Side effects [1, 4] | Week 5 Stool firmness [1, 4] | Week 5 Stools per week ([1]; peroral 500 mg twice daily during weeks 2-5, week 1 (baseline) and weeks 6-10 without treatment) | stools during treatment (patient-reported firmness) ([1]; three of six patients, 500 mg twice daily) | Number of stools per week was reduced by ([1]; two patients with high stool frequency (35-36 per week), 500 mg twice daily) | dose-response effect on number of stools ([2]; weeks 2-5) | reduction in weekly average stools/day ([2]; weeks 2-5) | maximal reduction of number of stools ([2]; weeks 2-5 (Fig. 4)) | EC50 of uroguanylin for cGMP production, relative to the WT receptor (fold lower than WT) [3] |
| --- | --- | --- | --- | --- | --- | --- | --- | --- | --- |
| CN(C)C(=N)NC(=N)N [metformin, 1,1-dimethylbiguanide] | Intermittent nausea and None (4×) and Increased bloating | Increased | 13 (2×) and 18 and 20 (2×) and 22 | firmer | 40% | clear dose-response effect; also recorded: significant dose-response effect | 30-40% | 30-40% | – |
| uroguanylin peptide (from UniProt Q16661 97-112) | – | – | – | – | – | – | – | – | 6 |
